The record followed here is PubChem BioAssay AID467 (The Scripps Research Institute Molecular Screening Center, 2006).

The source made the active and inactive calls. The rule behind the calls is not given here. Where only a bound is given, the exact number is not on record here.

The assay has as its system parental cell line counter screen, S1P1 agonist assay readout. Kind of assay: signal in parental cells, counter-screen for S1P1 agonist project (AID 467).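 Note: agonist potency measured against forskolin stimulation plus an EC20 level of SEW2871.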
With `COc1ccc(NC(=O)c2cnn3c(C(F)(F)F)cc(-c4ccco4)nc23)cc1OC`, the EC50 was > 95.1 µM (inactive).

For `CCOC(=O)Cc1csc(NC(=O)c2ccc(Br)s2)n1`, the EC50 was 47.9 µM (inactive).

On to `COc1ccc(CNC(=O)c2cc3c(C)nc4ccccc4c3o2)c(OC)c1`, for which the EC50 is > 95.1 µM (inactive).

On to `Cc1ccc(C(C)C)c(OCc2nc(-c3nonc3N)no2)c1`, for which the EC50 was > 30 µM (inactive).

In the case of `CCCCOc1ccc(S(=O)(=O)Nc2cc(OC)ccc2OC)cc1`, the EC50 is > 30 µM (inactive).

As for `N#Cc1ccc(NC(=O)Nc2ccc(Cl)cc2)cc1`, the EC50 was 9.6 µM.

As for `COc1ccc2[nH]c(=O)c3c(c2c1)OC(C)(C)C=C3`, the EC50 was 6.75 µM.

Regarding `c1ccc(N2CCN(Cc3ccnc4ccccc34)CC2)cc1`, the EC50 is 47.9 µM (inactive).

As for `COc1ccc(-c2noc(-c3cccc(OC)c3OC)n2)cc1OC`, the EC50 was > 95.1 µM (inactive).

Regarding `CC(C)OCCCNc1ncnc2c1[nH]c1ccccc12`, the EC50 is 43 µM (inactive).

`c1ccc(-c2ccc(-c3nc(-c4ccncc4)no3)cc2)cc1`: the EC50 was > 95.1 µM (inactive).

Turning to `CC(=O)c1ccc(NC(=O)N2CCN(c3cccc(Cl)c3)CC2)cc1`, the EC50 is > 30 µM (inactive).

Take `CC(C)c1cc(C(F)(F)F)n2nc(C(=O)Nc3ccc4c(c3)OCO4)cc2n1`: the EC50 was > 95.1 µM (inactive).

As for `O=c1c(-c2ccc3c(c2)OCCO3)c(C(F)(F)F)oc2cc(O)cc(O)c12`, the EC50 was 18.4 µM (inactive).

`CNc1oc(-c2ccc(OCc3ccccc3)cc2)nc1C#N`: the EC50 was > 95.1 µM (inactive).

Regarding `Nc1ccc(N2CCCCCC2)cc1`, the EC50 was 9.89 µM.

Consider `Cc1noc(/C=C/N(C)C)c1S(=O)(=O)N1CCc2ccccc21`, for which the EC50 was > 95.1 µM (inactive).

With `CCOc1ccc(Cc2nc(-c3nonc3N)no2)cc1OCC`, the EC50 was > 95.1 µM (inactive).

Turning to `O=C(CSc1nc2ccccc2o1)Nc1ccc(N2CCOCC2)c(Cl)c1`, the EC50 was 19.6 µM (inactive).

Take `CCCOc1ccc(-c2nnc(-c3ccncc3)o2)cc1`: the EC50 was > 95.1 µM (inactive).

Regarding `O=C(CSc1nnc(-c2cc3ccccc3cc2O)n1Cc1ccco1)c1ccc(F)cc1`, the EC50 was > 10 µM (inactive).

Turning to `O=C(Oc1cccc(C(=O)N2CCOCC2)c1)c1ccc(Br)cc1`, the EC50 was > 95.1 µM (inactive).

Turning to `Cc1cccc(NC(=O)Nc2ccc(C#N)cc2)n1`, the EC50 is 43 µM (inactive).

Regarding `CCN=c1sc(C(=O)NCCc2ccccc2)cc(=O)n1CC`, the EC50 is 53.2 µM (inactive).

Regarding `O=C(NCc1ccccc1)N1CCN(c2ccc(Cl)c(Cl)c2)CC1`, the EC50 is > 95.1 µM (inactive).

Regarding `CN(Cc1cccs1)c1ncnc2sccc12`, the EC50 was > 30 µM (inactive).

Consider `Cc1[nH]nc2c1C1(C(=O)N(Cc3ccc(Cl)cc3)c3ccccc31)C(C#N)=C(N)O2` (stereo unspecified), for which the EC50 was > 30 µM (inactive).

Take `CCOC(=O)CN1C(=O)C(C)(C)Oc2ccc(C(=O)Nc3ccccc3OC)cc21`: the EC50 was > 95.1 µM (inactive).

`Cc1nn(Cc2ccccc2)c(C)c1C(=O)OCC(=O)c1cc(C)n(C2CC2)c1C`: the EC50 was > 30 µM (inactive).

On to `CCCc1cc2c(=O)c(-c3ccccn3)coc2cc1OC`, for which the EC50 was > 95.1 µM (inactive).

For the compound `COc1ccc(-n2c(C)c(C(C)=O)c3cc(O)ccc32)cc1`, the EC50 was > 95.1 µM (inactive).

In the case of `Cc1ccc(-c2csc3ncnc(Sc4nnc(CN5CCCCCC5=O)o4)c23)cc1`, the EC50 is 2.73 µM.

`CCOc1ccccc1OCCCCCc1c(C)n[nH]c1C`: the EC50 was > 30 µM (inactive).

For `COc1cccc(-c2csc(N3CCN(CC(=O)Nc4ccc5c(c4)OCO5)CC3)n2)c1`, the EC50 was > 30 µM (inactive).

On to `COc1ccccc1-n1nnnc1SCc1cc2c(cc1Br)OCO2`, for which the EC50 was > 95.1 µM (inactive).

For `CCn1c(NC(=O)c2cccc(Cn3cc(Cl)cn3)c2)nc2ccccc21`, the EC50 was > 95.1 µM (inactive).

For the compound `Cc1cccc(OCCCCc2c(C)n[nH]c2C)c1C`, the EC50 was 29.3 µM (inactive).

As to `O=C(CCc1nc(-c2ccccc2F)no1)Nc1ccc(Oc2ccccc2)cc1`, the EC50 was 6.94 µM.

As to `Cn1cccc1C(=O)OCc1cc(Cl)cc2c1OCOC2`, the EC50 was > 30 µM (inactive).

For the compound `COc1ccc(CCNc2ncnc3c2oc2ccccc23)cc1OC`, the EC50 was 5.31 µM.

As for `CCSc1nc(N2CCOCC2)c2c(c1C#N)CCCC2`, the EC50 is > 95.1 µM (inactive).

As to `CCCCOC(=O)c1[nH]c2c(c1C)C(=O)CC(c1cc(OC)c(OC)c(OC)c1)C2` (stereo unspecified), the EC50 is 12.1 µM (inactive).

As to `CC(C)OC(=O)CSc1nc(N)c(C#N)c(-c2cccs2)c1C#N`, the EC50 is > 95.1 µM (inactive).

Consider `O=C(c1cc(-c2ccc(O)cc2)on1)N1CCc2ccccc2C1`, for which the EC50 was > 30 µM (inactive).

As for `Nc1c(C(=O)NC2CCCC2)sc2nc(-c3cccs3)ccc12`, the EC50 is 23.1 µM (inactive).

As for `c1ccc(C(Cc2nc(-c3cccnc3)no2)c2ccccc2)cc1`, the EC50 was > 95.1 µM (inactive).

On to `Cn1c(SCC(=O)Nc2ccc(N3CCOCC3)c(Cl)c2)nnc1-c1ccccc1`, for which the EC50 is > 95.1 µM (inactive).

With `COC(=O)C1=CN(CCCN2CCCC2=O)C=C(C(=O)OC)C1c1ccccc1C(F)(F)F`, the EC50 is > 95.1 µM (inactive).

As to `Cc1ccc2nc(C(F)(F)F)c(C#N)c(N)c2c1`, the EC50 is 6.47 µM.

As to `c1ccc(CN2CCN(c3ncnc4c3[nH]c3ccccc34)CC2)cc1`, the EC50 was 12.1 µM (inactive).

Regarding `Cc1cc(N2CCOCC2)nc(NCc2ccccc2)n1`, the EC50 is 71.3 µM (inactive).

For `CCc1ccc(N(CC)c2ncnc3nc[nH]c23)cc1`, the EC50 was > 95.1 µM (inactive).

As to `CCC(C)c1ccc2oc(-c3ccc(NC(=O)c4ncn[nH]4)cc3)nc2c1` (stereo unspecified), the EC50 was > 95.1 µM (inactive).

Turning to `Cn1c(=O)oc2cc(S(=O)(=O)N3CCCC(C(=O)N4CC=C(c5ccccc5)CC4)C3)ccc21` (stereo unspecified), the EC50 is 44.5 µM (inactive).

Consider `CC(=O)c1ccc(N2CCN(c3ccc(C(F)(F)F)cn3)CC2)cc1`, for which the EC50 is > 95.1 µM (inactive).

For `Nc1nnnn1/N=C/C(Br)=C/c1ccccc1`, the EC50 was 4.08 µM.

In the case of `CN(C)S(=O)(=O)c1ccc(C(=O)Nc2nc(-c3cccs3)cs2)cc1`, the EC50 is > 95.1 µM (inactive).

Take `CCCOC(=O)c1[nH]c2c(c1C)C(=O)CC(c1cc(OC)c(OC)c(OC)c1)C2` (stereo unspecified): the EC50 was 35.5 µM (inactive).

As to `Clc1ccccc1C1=Nn2c(nnc2-c2ccncc2)SC1`, the EC50 is 13.9 µM (inactive).

Turning to `CCN(C(=O)c1ccc(C(C)(C)C)cc1)c1nnc(Cn2nnc3ccccc32)s1`, the EC50 is 8.78 µM.

Take `O=S1(=O)Nc2c(ccc3cccnc23)-c2ccccc21`: the EC50 is > 95.1 µM (inactive).

Take `COc1ccccc1Oc1ccc2c(c1)C(=O)N(c1cccc(O)c1)C2=O`: the EC50 was > 30 µM (inactive).

Regarding `COc1ccc(-c2nc(-c3ccc(NC(=O)c4ccncc4)cc3)no2)cc1OC`, the EC50 was > 30 µM (inactive).

For the compound `CC(C)COC(=O)NCCOC(=O)Nc1cccc(Cl)c1`, the EC50 is 27.7 µM (inactive).

For the compound `CCCCOc1ncnc2c1[nH]c1ccccc12`, the EC50 was 37.9 µM (inactive).

Regarding `COc1ccccc1Oc1ccc2c(c1)C(=O)N(c1ccc(O)cc1)C2=O`, the EC50 was > 95.1 µM (inactive).

Consider `Cc1ccccc1-n1c(SCC(=O)c2cc(C)n(C)c2C)nnc1-c1ccncc1`, for which the EC50 was > 95.1 µM (inactive).

For `Cc1ccc(Cl)cc1N1CCN(C(=O)C2CCN(c3nnc(-n4cccc4)s3)CC2)CC1`, the EC50 was > 95.1 µM (inactive).

Regarding `Cc1cc(C(=O)N2CCN(C(c3ccccc3)c3ccccc3)CC2)no1`, the EC50 is > 95.1 µM (inactive).

`COc1ccc(-c2nc(-c3cccc(C(F)(F)F)c3)no2)cc1OC`: the EC50 is > 95.1 µM (inactive).

Consider `O=C(OC1CCCCC1)c1ccc(NC(=O)c2ccco2)cc1`, for which the EC50 was > 30 µM (inactive).

For the compound `c1ccc(CNc2ncnc3ccccc23)cc1`, the EC50 is 30.1 µM (inactive).

`CC(C)N1C(=O)CCC1C(=O)N1CCC(Cc2ccccc2)CC1` (stereo unspecified): the EC50 was > 95.1 µM (inactive).

Turning to `CCCC(=O)N1CCN(c2ccc(NC(=O)c3cc4ccccc4o3)cc2Cl)CC1`, the EC50 is 10.8 µM (inactive).

Turning to `CC(=O)Nc1ccc(S(=O)(=O)N2CCN(CCCOc3cc(C)ccc3C)CC2)cc1`, the EC50 was > 30 µM (inactive).

With `NC(=O)c1ccc(OCC(F)(F)C(F)(F)C(F)(F)C(F)(F)C(F)(F)C(F)F)cc1`, the EC50 was > 95.1 µM (inactive).

With `O=C(Cc1c[nH]c2ccccc12)N1CCc2ccccc21`, the EC50 was > 95.1 µM (inactive).

On to `N#C/C(=C/c1ccc(N2CCCCCC2)o1)c1ccc(F)cc1`, for which the EC50 was 4.4 µM.

`O=S(=O)(NCc1ccncc1)c1ccc(Br)s1`: the EC50 was > 95.1 µM (inactive).

As to `CCCc1cc(C(=O)Nc2sc3c(c2C#N)CCC3)no1`, the EC50 was > 95.1 µM (inactive).

On to `Brc1ccc2ncnc(Nc3ccc(N4CCOCC4)cc3)c2c1`, for which the EC50 is 46.6 µM (inactive).

With `CCOC(=O)c1cnc(-n2nc(C)cc2C)nc1NC1CCCCC1`, the concentration giving a half-maximal response (EC50) is 5.93 µM.

`Cc1nn(Cc2ccc(Cl)c(Cl)c2)c(C)c1NC(=O)c1cc(CC(C)C)on1`: the EC50 was 23.8 µM (inactive).

Take `Cc1cccc(OCCCCc2c(C)n[nH]c2C)c1`: the EC50 is > 30 µM (inactive).

With `COc1ccc(-c2cn3c(C)c(C(=O)Nc4ccncc4)sc3n2)cc1`, the EC50 is > 95.1 µM (inactive).

As to `Cc1ccc2nc(NC(=O)CSc3nc4c(c(=O)n3C)SC(C)C4)sc2c1` (stereo unspecified), the EC50 is > 95.1 µM (inactive).

As for `COc1cccc(N2CCN(c3ncnc4c3[nH]c3ccccc34)CC2C)c1` (stereo unspecified), the EC50 was 4.8 µM.

Regarding `CCCc1ccc(Oc2cn[nH]c2-c2ccc(O)cc2O)cc1`, the EC50 is > 10 µM (inactive).

On to `COc1ccc(OC)c(-c2cc(C(=O)Nc3c(C)nn(Cc4ccc(Cl)cc4)c3C)no2)c1`, for which the EC50 was > 95.1 µM (inactive).

In the case of `Cc1cccc(-c2nc(C#N)c(NC3CCCCC3)o2)c1`, the EC50 was > 95.1 µM (inactive).

With `CC(=O)Nc1ccccc1OCC(=O)c1cc(C)n(Cc2cccs2)c1C`, the EC50 was 10.5 µM (inactive).
